# Test system: Brassica plants comprising mutant AHAS alleles
# Assay: Field trial, pre-planting treatment (0, 10, 20, 30 g a.i./ha), two locations in Canada: ERG, EST1, EST2, PPTOX, VIG1, VIG2, VIG3 scores
# Assay type: in vivo, Brassica napus
# Conditions: ratio >1 = positive contribution
# Description: Tests were set up and conducted to asses the growth and performance of plants comprising AHAS full knock-out alleles, and to further analyze the correlation between the presence of full knockout and missense AHAS genes in Brassica plants and plant growth and herbicide tolerance of the Brassica plants in the field. To this end, the Brassica plants identified in Example 1 and 2 were backcrossed two times with an elite parent line, and subsequently selfed twice to obtain homozygous plants (BC2S2). Plants were grown as row plots in a split plot design with three replicates (main plots=herbicide treatments, subplots=genotypes) at two locations in Canada. Treatment pre-planting was carried out on the soil about two days before sowing with a dose of 0 (treatment A), 10 (treatment B), 20 (treatment C) or 30 (treatment D) g a.i./ha of thiencarbazone methyl. Herbicide tolerance was measured by scoring for different parameters. The parameter emergence (ERG) was scored at the cotyledon stage on a scale 1-9, where 1 means late emergence and 9 means early emergence. Establishment was scored 14 days after sowing (EST1) and 21 days after sowing (EST2). Scores were from 1 to 9, where 1 is the worst establishment (least plants that emerged), and 9 is the best establishment (most plants emerged). Phytotoxicity (PPTOX) was determined after establishment. Plants were evaluated on a scale of 1 to 9, where 1=completely yellowing, 5=50% of plant is yellow and 9=no yellowing. The vigor scores (see above) were determined at 1-2 leaf stage (VIG1), 7 days after VIG1 (VIG2) and 14 days after VIG1 (VIG3). The average values (Av) and standard deviations (SD) of the scores for the different parameters are represented in Table 7a-g.
# Further, the contribution of the knock-out allele to herbicide tolerance conferred by the missense allele was calculated. First, the scores were corrected for a possible effect of the growth per se, independent of herbicide treatment. To this end, the scores for treatments B, C and D were divided by the scores for treatment A for the same genotype and for the same parameter (corrected herbicide tolerance scores). Next, the effect of the knock-out allele to these corrected herbicide tolerance scores obtained by the missense allele was calculated. Therefore, the corrected herbicide tolerance scores for the missense—knock-out allele combination was divided by the corrected herbicide tolerance scores for the missense allele—wild-type combination. In case the knock-out allele has no effect on herbicide tolerance conferred by the missense allele, this ratio should be 1. In case the knock-out allele positively contributes to the herbicide tolerance conferred by the missense allele, this ratio should be higher than 1. The results for the contribution of the knock-out allele to herbicide tolerance conferred by the missense allele as calculated above are shown in table 8.
# [1] = Location A, treatment B 10 g a.i./ha pre-planting
# [2] = Location A, treatment C 20 g a.i./ha pre-planting
# [3] = Location A, treatment D 30 g a.i./ha pre-planting
# [4] = Location B, treatment B 10 g a.i./ha pre-planting
# [5] = Location B, treatment C 20 g a.i./ha pre-planting
# [6] = Location B, treatment D 30 g a.i./ha pre-planting
smiles,measurement,setting,value
"COC(=O)c1csc(C)c1S(=O)(=O)NC(=O)n1nc(OC)n(C)c1=O [thiencarbazone-methyl, methyl 4-[(4,5-dihydro-3-methoxy-4-methyl-5-oxo-1H-1,2,4-triazol-1-yl)carbonylsulfamoyl]-5-methylthiophene-3-carboxylate]",relative contribution of HETO112 (AHAS1 KO) to herbicide tolerance conferred by HETO111 (AHAS3 missense): VIG2,[1],1.05
same,relative contribution of HETO112 (AHAS1 KO) to herbicide tolerance conferred by HETO111 (AHAS3 missense): VIG3,[1],1.14
same,relative contribution of HETO104 (AHAS3 KO) to herbicide tolerance conferred by HETO108 (AHAS1 missense): ERG,[2],0.77
same,relative contribution of HETO104 (AHAS3 KO) to herbicide tolerance conferred by HETO108 (AHAS1 missense): EST1,[2],0.77
same,relative contribution of HETO104 (AHAS3 KO) to herbicide tolerance conferred by HETO108 (AHAS1 missense): EST2,[2],0.87
same,relative contribution of HETO104 (AHAS3 KO) to herbicide tolerance conferred by HETO108 (AHAS1 missense): PPTOX,[2],1.03
same,relative contribution of HETO104 (AHAS3 KO) to herbicide tolerance conferred by HETO108 (AHAS1 missense): VIG1,[2],0.88
same,relative contribution of HETO104 (AHAS3 KO) to herbicide tolerance conferred by HETO108 (AHAS1 missense): VIG2,[2],0.90
same,relative contribution of HETO104 (AHAS3 KO) to herbicide tolerance conferred by HETO108 (AHAS1 missense): VIG3,[2],0.91
same,relative contribution of HETO112 (AHAS1 KO) to herbicide tolerance conferred by HETO111 (AHAS3 missense): ERG,[2],1.20
same,relative contribution of HETO112 (AHAS1 KO) to herbicide tolerance conferred by HETO111 (AHAS3 missense): EST1,[2],1.19
same,relative contribution of HETO112 (AHAS1 KO) to herbicide tolerance conferred by HETO111 (AHAS3 missense): EST2,[2],1.19
same,relative contribution of HETO112 (AHAS1 KO) to herbicide tolerance conferred by HETO111 (AHAS3 missense): PPTOX,[2],1.13
same,relative contribution of HETO112 (AHAS1 KO) to herbicide tolerance conferred by HETO111 (AHAS3 missense): VIG1,[2],1.11
same,relative contribution of HETO112 (AHAS1 KO) to herbicide tolerance conferred by HETO111 (AHAS3 missense): VIG2,[2],1.00
same,relative contribution of HETO112 (AHAS1 KO) to herbicide tolerance conferred by HETO111 (AHAS3 missense): VIG3,[2],1.05
same,relative contribution of HETO104 (AHAS3 KO) to herbicide tolerance conferred by HETO108 (AHAS1 missense): ERG,[3],1.03
same,relative contribution of HETO104 (AHAS3 KO) to herbicide tolerance conferred by HETO108 (AHAS1 missense): EST1,[3],1.03
same,relative contribution of HETO104 (AHAS3 KO) to herbicide tolerance conferred by HETO108 (AHAS1 missense): EST2,[3],0.94
same,relative contribution of HETO104 (AHAS3 KO) to herbicide tolerance conferred by HETO108 (AHAS1 missense): PPTOX,[3],0.90
same,relative contribution of HETO104 (AHAS3 KO) to herbicide tolerance conferred by HETO108 (AHAS1 missense): VIG1,[3],0.94
same,relative contribution of HETO104 (AHAS3 KO) to herbicide tolerance conferred by HETO108 (AHAS1 missense): VIG2,[3],0.89
same,relative contribution of HETO104 (AHAS3 KO) to herbicide tolerance conferred by HETO108 (AHAS1 missense): VIG3,[3],0.95
same,relative contribution of HETO112 (AHAS1 KO) to herbicide tolerance conferred by HETO111 (AHAS3 missense): ERG,[3],1.28
same,relative contribution of HETO112 (AHAS1 KO) to herbicide tolerance conferred by HETO111 (AHAS3 missense): EST1,[3],1.36
same,relative contribution of HETO112 (AHAS1 KO) to herbicide tolerance conferred by HETO111 (AHAS3 missense): EST2,[3],1.18
same,relative contribution of HETO112 (AHAS1 KO) to herbicide tolerance conferred by HETO111 (AHAS3 missense): PPTOX,[3],1.23
same,relative contribution of HETO112 (AHAS1 KO) to herbicide tolerance conferred by HETO111 (AHAS3 missense): VIG1,[3],1.18
same,relative contribution of HETO112 (AHAS1 KO) to herbicide tolerance conferred by HETO111 (AHAS3 missense): VIG2,[3],1.25
same,relative contribution of HETO112 (AHAS1 KO) to herbicide tolerance conferred by HETO111 (AHAS3 missense): VIG3,[3],1.21
same,relative contribution of HETO104 (AHAS3 KO) to herbicide tolerance conferred by HETO108 (AHAS1 missense): ERG,[4],0.92
same,relative contribution of HETO104 (AHAS3 KO) to herbicide tolerance conferred by HETO108 (AHAS1 missense): EST1,[4],1.07
same,relative contribution of HETO104 (AHAS3 KO) to herbicide tolerance conferred by HETO108 (AHAS1 missense): EST2,[4],0.95
same,relative contribution of HETO104 (AHAS3 KO) to herbicide tolerance conferred by HETO108 (AHAS1 missense): PPTOX,[4],0.78
same,relative contribution of HETO104 (AHAS3 KO) to herbicide tolerance conferred by HETO108 (AHAS1 missense): VIG1,[4],0.95
same,relative contribution of HETO104 (AHAS3 KO) to herbicide tolerance conferred by HETO108 (AHAS1 missense): VIG2,[4],1.08
same,relative contribution of HETO104 (AHAS3 KO) to herbicide tolerance conferred by HETO108 (AHAS1 missense): VIG3,[4],1.19
same,relative contribution of HETO112 (AHAS1 KO) to herbicide tolerance conferred by HETO111 (AHAS3 missense): ERG,[4],0.99
same,relative contribution of HETO112 (AHAS1 KO) to herbicide tolerance conferred by HETO111 (AHAS3 missense): EST1,[4],1.00
same,relative contribution of HETO112 (AHAS1 KO) to herbicide tolerance conferred by HETO111 (AHAS3 missense): EST2,[4],1.06
same,relative contribution of HETO112 (AHAS1 KO) to herbicide tolerance conferred by HETO111 (AHAS3 missense): PPTOX,[4],0.84
same,relative contribution of HETO112 (AHAS1 KO) to herbicide tolerance conferred by HETO111 (AHAS3 missense): VIG1,[4],0.89
same,relative contribution of HETO112 (AHAS1 KO) to herbicide tolerance conferred by HETO111 (AHAS3 missense): VIG2,[4],0.95
same,relative contribution of HETO112 (AHAS1 KO) to herbicide tolerance conferred by HETO111 (AHAS3 missense): VIG3,[4],1.04
same,relative contribution of HETO104 (AHAS3 KO) to herbicide tolerance conferred by HETO108 (AHAS1 missense): ERG,[5],1.15
same,relative contribution of HETO104 (AHAS3 KO) to herbicide tolerance conferred by HETO108 (AHAS1 missense): EST1,[5],1.07
same,relative contribution of HETO104 (AHAS3 KO) to herbicide tolerance conferred by HETO108 (AHAS1 missense): EST2,[5],1.02
same,relative contribution of HETO104 (AHAS3 KO) to herbicide tolerance conferred by HETO108 (AHAS1 missense): PPTOX,[5],1.28
same,relative contribution of HETO104 (AHAS3 KO) to herbicide tolerance conferred by HETO108 (AHAS1 missense): VIG1,[5],1.22
same,relative contribution of HETO104 (AHAS3 KO) to herbicide tolerance conferred by HETO108 (AHAS1 missense): VIG2,[5],1.15
same,relative contribution of HETO104 (AHAS3 KO) to herbicide tolerance conferred by HETO108 (AHAS1 missense): VIG3,[5],1.25
same,relative contribution of HETO112 (AHAS1 KO) to herbicide tolerance conferred by HETO111 (AHAS3 missense): ERG,[5],0.92
same,relative contribution of HETO112 (AHAS1 KO) to herbicide tolerance conferred by HETO111 (AHAS3 missense): EST1,[5],1.13
same,relative contribution of HETO112 (AHAS1 KO) to herbicide tolerance conferred by HETO111 (AHAS3 missense): EST2,[5],1.07
same,relative contribution of HETO112 (AHAS1 KO) to herbicide tolerance conferred by HETO111 (AHAS3 missense): PPTOX,[5],0.88
same,relative contribution of HETO112 (AHAS1 KO) to herbicide tolerance conferred by HETO111 (AHAS3 missense): VIG1,[5],0.93
same,relative contribution of HETO112 (AHAS1 KO) to herbicide tolerance conferred by HETO111 (AHAS3 missense): VIG2,[5],0.94
same,relative contribution of HETO112 (AHAS1 KO) to herbicide tolerance conferred by HETO111 (AHAS3 missense): VIG3,[5],0.98
same,relative contribution of HETO104 (AHAS3 KO) to herbicide tolerance conferred by HETO108 (AHAS1 missense): ERG,[6],0.93
same,relative contribution of HETO104 (AHAS3 KO) to herbicide tolerance conferred by HETO108 (AHAS1 missense): EST1,[6],1.00

# From patent publication US20120255051A1, “HERBICIDE TOLERANT PLANTS” (priority 2009, published 2012)
